These results are taken from publication PMC5429603, “Discovery and characterization of verinurad, a potent and specific inhibitor of URAT1 for the treatment of hyperuricemia and gout” (Scientific Reports, 2017).

Format in all cases: cell-based
For test [1], the target named is T1, rat URAT1 (Rattus norvegicus, UniProt Q3ZAV1).
T1 construct: host or cells: HEK-293T
T1 sequence (Q3ZAV1 1-553): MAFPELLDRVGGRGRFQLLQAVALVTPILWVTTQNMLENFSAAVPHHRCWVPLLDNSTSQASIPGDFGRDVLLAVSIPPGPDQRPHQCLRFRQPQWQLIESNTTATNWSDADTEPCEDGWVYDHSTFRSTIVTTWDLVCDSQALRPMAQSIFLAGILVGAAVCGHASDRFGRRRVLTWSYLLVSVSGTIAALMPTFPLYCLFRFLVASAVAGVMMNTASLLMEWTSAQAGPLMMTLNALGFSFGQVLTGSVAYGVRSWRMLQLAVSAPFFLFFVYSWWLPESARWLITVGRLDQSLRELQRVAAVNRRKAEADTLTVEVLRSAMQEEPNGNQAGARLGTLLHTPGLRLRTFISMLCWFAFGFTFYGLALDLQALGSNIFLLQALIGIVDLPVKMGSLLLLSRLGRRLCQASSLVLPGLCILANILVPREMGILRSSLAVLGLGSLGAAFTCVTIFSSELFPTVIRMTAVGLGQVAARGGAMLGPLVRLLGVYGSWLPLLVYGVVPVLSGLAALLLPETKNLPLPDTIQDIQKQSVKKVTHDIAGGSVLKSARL
Briefly: URAT1 activity assay, rat URAT1. The following applies: rat URAT1 wild type; 14C-uric acid; read-out: IC50, inhibition of transport activity. As for the experimental part:
(§1) HEK-293T cells were maintained in DMEM/high glucose/L-glutamine/HEPES supplemented with 1 mM sodium pyruvate (Life Technologies) and 10% FBS (PAA Laboratories) at 37 °C in 5% CO2. To express URAT1, OAT4 or OAT1, plasmids were reverse transfected into HEK-293T cells. DNA (10 µg) was mixed with 30 µl of DreamFect Gold (Boca Scientific) in 2 ml OptiMem (Life Technologies). After 20 minutes, 18 ml of media containing 2 × 10^7 cells in suspension was added and mixed, and 200 µl per well were plated onto white clear-bottomed poly-D-lysine coated 96-well plates (BD Biosciences). The cells were assayed the following day.
URAT1 and OAT4 activity assays were performed in assay buffer consisting of 25 mM MES pH 5.5 (from a 1 M MES solution [Sigma] adjusted to pH 5.5 with sodium hydroxide), 125 mM sodium gluconate, 4.8 mM potassium gluconate, 1.2 mM monobasic potassium phosphate, 1.2 mM magnesium sulfate, 1.3 mM calcium gluconate and 5.6 mM glucose. URAT1 inhibitors were serially diluted into assay buffer and added to the cells for 5 minutes prior to addition of substrate. URAT1-expressing cells were incubated with 100 µM ^14C-uric acid for 10 minutes and OAT4-expressing cells were incubated with 20 µM carboxyfluorescein (Life Technologies, Inc.) for 5 minutes. […] Each treatment was measured in triplicate.

The target of test [2] is T2, human URAT1 h-M29L (Homo sapiens, UniProt Q96S37, M29L).
T2 construct: expressed in transfected cells; host or cells: HEK-293T
Briefly: URAT1 activity assay, h-M29L. The settings on record: TM1 point mutant, read-out: Verinurad affinity (IC50). The source says:
(§2) Human URAT1 (GenBank BC053348.1, Homo sapiens SLC22A12), rat URAT1 (NCBI NM_001034943.1, Rattus norvegicus Slc22a12) and human OAT4 (NCBI NM_018484.2, Homo sapiens SLC22A11) genes were purchased from Origene Technologies, Inc. and subcloned into pCMV6/neo using NotI. Where indicated, controls transfections used pCMV6/neo. Mutants were produced by site-directed mutagenesis using the QuikChange Lightning Multi Site-Directed Mutagenesis Kit (Agilent Technologies). […] Mutagenic primer sequences are provided in ref. [15] and mutagenic primer sequences for previously unreported mutants shown in Supplementary Table 1. All constructs used in this study were untagged. Human OAT1 was purchased from Fisher Scientific (catalog # MHS1010–7508183 in pSPORT6, NCBI NM_153276.2, Homo sapiens SLC22A6).
(§3) HEK-293T cells were maintained in DMEM/high glucose/L-glutamine/HEPES supplemented with 1 mM sodium pyruvate (Life Technologies) and 10% FBS (PAA Laboratories) at 37 °C in 5% CO2. […]
(§4) URAT1 and OAT4 activity assays were performed in assay buffer consisting of 25 mM MES pH 5.5 (from a 1 M MES solution [Sigma] adjusted to pH 5.5 with sodium hydroxide), 125 mM sodium gluconate, 4.8 mM potassium gluconate, 1.2 mM monobasic potassium phosphate, 1.2 mM magnesium sulfate, 1.3 mM calcium gluconate and 5.6 mM glucose. […] Each treatment was measured in triplicate.

Test [3] deals with T3, rat URAT1-Y365F (Rattus norvegicus, UniProt Q3ZAV1, Y365F).
T3 construct: expressed in transfected cells; host or cells: HEK-293T
T3 sequence (Q3ZAV1 1-553 Y365F): T1 sequence (Q3ZAV1 1-553) with Y365F
Put plainly: URAT1 activity assay, r-Y365F.
Description: as §2, §3, §4

In test [4] the target is T4, rat URAT1 r-M481I (Rattus norvegicus, UniProt Q3ZAV1, M481I).
T4 construct: expressed in transfected cells; host or cells: HEK-293T
Briefly: URAT1 activity assay, r-M481I.
Description: as §2, §3, §4

The target of test [5] is T5, human URAT1 h-F241Y (Homo sapiens, UniProt Q96S37, F241Y).
T5 construct: expressed in transfected cells; host or cells: HEK-293T
T5 sequence (Q96S37 1-553 F241Y): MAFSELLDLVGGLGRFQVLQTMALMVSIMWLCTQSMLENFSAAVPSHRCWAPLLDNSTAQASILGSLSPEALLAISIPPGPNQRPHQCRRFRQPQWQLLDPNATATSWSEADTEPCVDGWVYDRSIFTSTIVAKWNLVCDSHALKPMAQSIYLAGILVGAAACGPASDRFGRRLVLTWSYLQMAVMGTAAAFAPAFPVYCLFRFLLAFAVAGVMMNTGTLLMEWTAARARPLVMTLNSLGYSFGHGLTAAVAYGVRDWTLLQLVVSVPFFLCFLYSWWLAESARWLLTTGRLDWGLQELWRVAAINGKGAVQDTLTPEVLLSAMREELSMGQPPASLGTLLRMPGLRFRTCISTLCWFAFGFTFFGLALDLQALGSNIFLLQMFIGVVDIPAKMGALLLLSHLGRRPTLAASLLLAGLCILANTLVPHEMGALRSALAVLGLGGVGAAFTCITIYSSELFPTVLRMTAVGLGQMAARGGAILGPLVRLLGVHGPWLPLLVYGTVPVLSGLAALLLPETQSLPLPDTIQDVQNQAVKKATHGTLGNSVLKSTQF
Put plainly: URAT1 activity assay, h-F241Y.
Description: as §2, §1
URAT1 and OAT4 activity assays were performed in assay buffer consisting of 25 mM MES pH 5.5 (from a 1 M MES solution [Sigma] adjusted to pH 5.5 with sodium hydroxide), 125 mM sodium gluconate, 4.8 mM potassium gluconate, 1.2 mM monobasic potassium phosphate, 1.2 mM magnesium sulfate, 1.3 mM calcium gluconate and 5.6 mM glucose. URAT1 inhibitors were serially diluted into assay buffer and added to the cells for 5 minutes prior to addition of substrate. URAT1-expressing cells were incubated with 100 µM ^14C-uric acid for 10 minutes and OAT4-expressing cells were incubated with 20 µM carboxyfluorescein (Life Technologies, Inc.) for 5 minutes. Cells were then washed three times in 25 mM MES pH 5.5/125 mM sodium gluconate, and solubilized in Ultima Gold (Perkin Elmer) prior to liquid scintillation counting. Each treatment was measured in triplicate.

SMILES strings stand for the structures. Substitutions are numbered along the chain they refer to.

T4 sequence (Q3ZAV1 whole entry M481I): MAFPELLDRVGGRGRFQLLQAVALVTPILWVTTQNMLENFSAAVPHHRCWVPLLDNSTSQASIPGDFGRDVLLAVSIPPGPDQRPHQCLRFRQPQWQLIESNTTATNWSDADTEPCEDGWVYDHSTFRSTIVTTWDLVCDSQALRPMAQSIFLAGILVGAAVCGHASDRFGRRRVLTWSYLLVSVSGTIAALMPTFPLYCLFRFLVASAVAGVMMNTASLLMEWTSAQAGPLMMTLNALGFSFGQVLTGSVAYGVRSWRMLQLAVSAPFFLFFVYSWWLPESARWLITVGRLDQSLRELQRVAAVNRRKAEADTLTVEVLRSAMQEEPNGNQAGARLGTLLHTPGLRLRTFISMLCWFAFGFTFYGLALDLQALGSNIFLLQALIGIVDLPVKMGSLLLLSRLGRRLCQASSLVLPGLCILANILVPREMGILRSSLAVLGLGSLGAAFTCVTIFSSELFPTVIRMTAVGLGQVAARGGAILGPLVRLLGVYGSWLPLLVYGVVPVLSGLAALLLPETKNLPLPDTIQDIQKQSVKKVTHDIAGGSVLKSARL
T2 sequence (Q96S37 whole entry M29L): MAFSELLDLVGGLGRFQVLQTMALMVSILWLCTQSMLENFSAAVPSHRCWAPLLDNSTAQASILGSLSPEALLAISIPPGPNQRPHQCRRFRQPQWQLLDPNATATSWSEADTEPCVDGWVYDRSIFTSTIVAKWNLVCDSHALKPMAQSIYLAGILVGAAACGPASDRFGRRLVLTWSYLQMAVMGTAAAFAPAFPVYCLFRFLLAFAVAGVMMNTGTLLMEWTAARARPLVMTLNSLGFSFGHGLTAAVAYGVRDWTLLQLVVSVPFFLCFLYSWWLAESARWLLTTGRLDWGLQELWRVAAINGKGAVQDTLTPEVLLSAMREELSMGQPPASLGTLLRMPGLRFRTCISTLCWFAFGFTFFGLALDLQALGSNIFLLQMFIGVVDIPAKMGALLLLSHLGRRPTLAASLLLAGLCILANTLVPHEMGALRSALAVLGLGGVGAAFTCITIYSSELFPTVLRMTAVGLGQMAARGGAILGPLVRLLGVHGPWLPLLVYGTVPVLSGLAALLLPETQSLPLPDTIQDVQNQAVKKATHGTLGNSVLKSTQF

Usually IC50 stands for the concentration that gives 50% inhibition. For the molecule `CC(C)(Sc1ccncc1-c1ccc(C#N)c2ccccc12)C(=O)O` [Verinurad, 2-((3-(4-cyanonaphthalen-1-yl)pyrindin-4-yl)thio)-2-methylpropanoic acid], the IC50 in test [1] is 41000 ± 2700 nM; in test [2], 11 ± 2.9 nM; in test [3] (TM7 point mutant, read-out: Verinurad affinity (IC50)), 2900 ± 1300 nM; in test [4] (TM11 point mutant, read-out: Verinurad affinity (IC50)), 11000 ± 3100 nM; in test [5] (h-F241Y binding site point mutant), 120 nM. For the same molecule, the “fold higher affinity compared to rat URAT1” value in test [3] is given as 14 fold. Moreover, the “fold increase in affinity compared to rat URAT1” value in test [4] is given as 4 fold. Further, in test [5] (h-F241Y), the “fold reduced affinity compared to human URAT1” value was 5 fold.
